Test results taken from the NIST ThermoML archive (doi:10.1021/je049743g).
“And” between values parts separate entries of the source, which are not always exact repeats. Equal values may be shown once.

Assay: wn = mass fraction of the nth substance listed
Settings: Capillary rise

FC(C(F)(F)F)C(F)(F)F [1,1,1,2,3,3,3-heptafluoropropane] + FCF
Settings | surface tension liquid-gas
252.66 K, w2 = 0.3988 | 12.74 mN/m and 12.77 mN/m
252.82 K, w2 = 0.3003 | 12.41 mN/m
254.68 K, w2 = 0.3983 | 12.35 mN/m and 12.37 mN/m
254.83 K, w2 = 0.544 | 12.71 mN/m
255.1 K, w2 = 0.2998 | 12.14 mN/m and 12.13 mN/m
256.92 K, w2 = 0.354 | 11.85 mN/m
257.09 K, w2 = 0.5434 | 12.37 mN/m and 12.38 mN/m
257.1 K, w2 = 0.2993 | 11.77 mN/m and 11.79 mN/m
257.1 K, w2 = 0.3977 | 12.02 mN/m and 12.03 mN/m
258.83 K, w2 = 0.5429 | 11.97 mN/m
258.84 K, w2 = 0.7282 | 12.63 mN/m and 12.65 mN/m
258.88 K, w2 = 0.3972 | 11.74 mN/m
259 K, w2 = 0.2988 | 11.52 mN/m and 11.51 mN/m
260.89 K, w2 = 0.3528 | 11.26 mN/m and 11.25 mN/m
260.99 K, w2 = 0.5423 | 11.65 mN/m
261.01 K, w2 = 0.2982 | 11.3 mN/m
261.05 K, w2 = 0.3966 | 11.49 mN/m and 11.48 mN/m
262.75 K, w2 = 0.2977 | 11 mN/m and 10.97 mN/m
262.79 K, w2 = 0.3521 | 11.06 mN/m
262.8 K, w2 = 0.7274 | 12.12 mN/m and 12.08 mN/m
262.85 K, w2 = 0.3961 | 11.14 mN/m
262.96 K, w2 = 0.5417 | 11.34 mN/m
262.98 K, w2 = 0.3961 | 11.14 mN/m and 11.18 mN/m
264.66 K, w2 = 0.727 | 11.63 mN/m and 11.62 mN/m
264.68 K, w2 = 0.5412 | 11.11 mN/m and 11.09 mN/m
264.87 K, w2 = 0.3955 | 10.9 mN/m and 10.92 mN/m
264.88 K, w2 = 0.3514 | 10.71 mN/m and 10.75 mN/m
264.96 K, w2 = 0.297 | 10.65 mN/m
266.51 K, w2 = 0.2966 | 10.42 mN/m and 10.44 mN/m
266.75 K, w2 = 0.5405 | 10.75 mN/m and 10.74 mN/m
266.88 K, w2 = 0.3507 | 10.44 mN/m and 10.47 mN/m
267.04 K, w2 = 0.3948 | 10.5 mN/m and 10.52 mN/m
268.37 K, w2 = 0.296 | 10.2 mN/m and 10.23 mN/m
268.37 K, w2 = 0.54 | 10.53 mN/m and 10.52 mN/m
268.63 K, w2 = 0.7261 | 11.05 mN/m and 11 mN/m
268.72 K, w2 = 0.3943 | 10.33 mN/m
268.79 K, w2 = 0.35 | 10.2 mN/m and 10.23 mN/m
270.7 K, w2 = 0.3936 | 10.06 mN/m and 10.03 mN/m
270.78 K, w2 = 0.3493 | 9.92 mN/m
270.78 K, w2 = 0.5392 | 10.1 mN/m
270.81 K, w2 = 0.2952 | 9.83 mN/m and 9.86 mN/m
272.17 K, w2 = 0.7252 | 10.38 mN/m
272.9 K, w2 = 0.2945 | 9.56 mN/m and 9.6 mN/m
272.91 K, w2 = 0.7249 | 10.28 mN/m
273.15 K, w2 = 0.3928 | 9.64 mN/m and 9.66 mN/m
273.15 K, w2 = 0.5383 | 9.73 mN/m
273.6 K, w2 = 0.3482 | 9.51 mN/m
275.16 K, w2 = 0.2937 | 9.29 mN/m and 9.31 mN/m
275.3 K, w2 = 0.392 | 9.26 mN/m and 9.29 mN/m
275.48 K, w2 = 0.5375 | 9.44 mN/m
275.5 K, w2 = 0.3474 | 9.19 mN/m and 9.23 mN/m
275.5 K, w2 = 0.7242 | 9.87 mN/m and 9.89 mN/m
276.85 K, w2 = 0.2931 | 9.01 mN/m and 9.05 mN/m
277.27 K, w2 = 0.3913 | 9.02 mN/m and 9.06 mN/m
277.3 K, w2 = 0.7237 | 9.66 mN/m and 9.65 mN/m
277.39 K, w2 = 0.3466 | 8.95 mN/m and 8.98 mN/m
277.43 K, w2 = 0.5367 | 9.29 mN/m
279.39 K, w2 = 0.7231 | 9.32 mN/m and 9.34 mN/m
279.42 K, w2 = 0.2921 | 8.71 mN/m
279.43 K, w2 = 0.5359 | 8.92 mN/m
279.46 K, w2 = 0.3457 | 8.67 mN/m
279.6 K, w2 = 0.3904 | 8.74 mN/m and 8.76 mN/m
281.21 K, w2 = 0.3898 | 8.45 mN/m and 8.46 mN/m
281.3 K, w2 = 0.5351 | 8.65 mN/m and 8.64 mN/m
281.45 K, w2 = 0.3448 | 8.4 mN/m and 8.41 mN/m
281.51 K, w2 = 0.2913 | 8.39 mN/m
281.54 K, w2 = 0.7224 | 8.9 mN/m and 8.93 mN/m
283.11 K, w2 = 0.2907 | 8.2 mN/m
283.17 K, w2 = 0.389 | 8.23 mN/m
283.29 K, w2 = 0.7219 | 8.59 mN/m and 8.61 mN/m
283.3 K, w2 = 0.5342 | 8.39 mN/m and 8.4 mN/m
283.49 K, w2 = 0.3439 | 8.13 mN/m
284.67 K, w2 = 0.5336 | 8.04 mN/m and 8.07 mN/m
285.18 K, w2 = 0.7212 | 8.37 mN/m
285.19 K, w2 = 0.3882 | 7.93 mN/m and 7.99 mN/m
285.24 K, w2 = 0.2898 | 7.93 mN/m and 7.9 mN/m
285.46 K, w2 = 0.343 | 7.94 mN/m and 7.95 mN/m
286.62 K, w2 = 0.3876 | 7.79 mN/m
286.86 K, w2 = 0.2891 | 7.75 mN/m and 7.71 mN/m
287.47 K, w2 = 0.342 | 7.57 mN/m
287.63 K, w2 = 0.5322 | 7.69 mN/m and 7.73 mN/m
289.31 K, w2 = 0.5314 | 7.44 mN/m and 7.45 mN/m
289.33 K, w2 = 0.7197 | 7.78 mN/m
289.37 K, w2 = 0.288 | 7.41 mN/m
289.37 K, w2 = 0.3411 | 7.34 mN/m and 7.38 mN/m
289.42 K, w2 = 0.3863 | 7.45 mN/m
289.68 K, w2 = 0.2879 | 7.29 mN/m
289.89 K, w2 = 0.7195 | 7.55 mN/m and 7.53 mN/m
290.16 K, w2 = 0.386 | 7.2 mN/m
291.25 K, w2 = 0.2872 | 7.12 mN/m
291.47 K, w2 = 0.34 | 7.14 mN/m
291.47 K, w2 = 0.5304 | 7.13 mN/m and 7.18 mN/m
291.5 K, w2 = 0.3854 | 7.05 mN/m and 7.03 mN/m
291.53 K, w2 = 0.2871 | 7.07 mN/m and 7.05 mN/m
291.66 K, w2 = 0.3853 | 7.07 mN/m and 7.11 mN/m
291.67 K, w2 = 0.5303 | 7.18 mN/m and 7.16 mN/m
291.93 K, w2 = 0.7187 | 7.33 mN/m and 7.35 mN/m
293.1 K, w2 = 0.2864 | 6.87 mN/m
293.2 K, w2 = 0.3391 | 6.83 mN/m and 6.87 mN/m
293.46 K, w2 = 0.2862 | 6.81 mN/m and 6.79 mN/m
293.53 K, w2 = 0.5293 | 6.9 mN/m
293.53 K, w2 = 0.7181 | 7.06 mN/m and 7.09 mN/m
293.8 K, w2 = 0.3843 | 6.67 mN/m and 6.69 mN/m
